Series [1] is described as follows: Gel formation / sol-gel transition by vial inverting method. It counts as physicochemical. The note with it: for Time at room temperature to convert again into a sol state: after gelation at 37° C., regardless of the concentration; for CGC: Table 5, critical gelation concentration. The method, then: In a glass bottle of 2 mL (diameter 10 mm) with a screw cap, different compounds with different concentrations were weighed to perform the gelation. A sodium hydroxide solution was added to the suspension in order to adjust the pH value, and vortex and treatment of the sonication were alternately used until a clear compound solution was obtained. Polyethylene glycols having different molecular weights such as 300 g/mol, 600 g/mol, 1000 g/mol, 1500 g/mol, 2000 g/mol, and 3000 g/mol, etc. were also dissolved in the deionized water in order to obtain the polyethylene glycol solution, and the desired concentrations were further controlled. After the polyethylene glycols were completely dissolved, the polyethylene glycol solution was then mixed with the compound solution in order to obtain a compound/PEG solution. By adding hydrochloric acid dropwise, the pH value of the compound/PEG solution was adjusted to a neutral pH value of 7.0-7.4.
Gel formation was determined by a vial inverting method. After the equilibrium at room temperature, a glass bottle with the sample was immersed into a water bath of 37° C. in equilibrium or in an incubator of 37° C. for 30 minutes. After flipping the glass bottle, the sol-gel transition was determined. If the sample without floating was observed within 1 minute, the sample was considered as a gel. […] Each of the temperature data point represented an average temperature of three measurements. At a physiologically relevant temperature of 37° C., the gelation time as a function of the concentration of the block copolymer was measured in the water bath of 37° C.

The nature of series [2]: Cell viability test (MTT assay). Format: cell-based. The note with it: human, hMSC (3A6) cells, read-out: Survival rate. The protocol: The biocompatibilities of different peptide molecules were measured by a cell viability test (MTT assay). hMSC (3A6) cells were seeded in a 24-well plate with a density of 50,000 cells in each well, and the hMSC (3A6) cells were cultured for 24 hours, wherein the 24-well plate comprises a culture medium (DMEM) of 0.5 mL, and the DMEM comprises 10% FBS and 1% penicillin. When seeded in the cells, each of the wells was added with the compounds of different concentrations (0.5 and 5 wt %). After 24 and 48 hours, the original culture medium was replaced by a fresh culture medium, wherein the fresh culture medium was supplemented with a MTT reagent of 0.5 mL (4 mg/mL). After another 4 hours, the culture medium containing the MTT reagent was removed, and DMSO (0.5 mL per well) was then added in order to dissolve formazan crystals. Each of the 24-well plate was transferred to a 96-well plate. The optical density of the cells was measured at 595 nm by a light absorption plate reader (Sunrise, DV990/BV4 GDV Programmable MPT reader). The cells without treated by the compounds were used as the control group. The cell viability percentage, that is, viability (%), of the cells was calculated according to the following Formula (2).
[formula] wherein ODsample represented the optical density of the sample, and ODcontrol represented the optical density of the control group.
In some embodiments of the invention, a cell viability test (MTT assay) was used for a colorimetric assay to analyze the biocompatibilities of the samples. In detail, a 0.5 wt % 5F-FF, a 0.5 wt %: 4.5 wt % 5F-FF/PEG1500, a 0.5 wt %: 4.5 wt % 5F-FF/PEG2000, and a 0.5 wt %: 4.5 wt % 5F-FF/PEG3000 (hydrogels under neutral conditions), and the immortalized human mesenchymal stem cells (hMSC, 3a6) was selected for testing, wherein the results were shown in FIG. 11. FIG. 11 was a diagram showing cell viability of cells treated with 0.5 wt % 5F-FF, 0.5 wt %: 4.5 wt % 5F-FF/PEG1500, 0.5 wt %: 4.5 wt % 5F-FF/PEG2000 and 0.5 wt %: 4.5 wt % 5F-FF/PEG3000 according to some embodiments of the invention.
For orientation: Formazan colour is commonly taken as a measure of viable cells.

Series [3] is described as follows: Hydrogel degradation in PBS at 37° C. Format: physicochemical. The settings on record: on the seventh day, PBS pH 7.4, 37° C. The method, then: Hydrogel degradation was performed in a phosphate buffered solution (PBS) at 37° C. with 5% of CO2. In a 4 mL glass bottle, various 0.3 mL hydrogels were prepared, and 3 mL PBS was added to each of the glass bottles having the hydrogel. At some specific data points, the PBS was removed. The hydrogel was freeze-dried by the freeze-drying method, and the hydrogel degradation rate was calculated according to the following Formula (1),
[formula] wherein W (%) represented the hydrogel degradation rate, Wi represented the initial weight of the hydrogel at day 0, and Wd represented the dry weight of the hydrogel at day of a specific number. Cell Viability Test
In some embodiments of the invention, accordingly, with the remaining conditions the same, the stability of the thermosensitive hydrogel was tested by immersing the samples into a PBS with the pH value of 7.4 at 37° C., and the result thereof was shown in FIG. 10. FIG. 10 was a diagram showing specific degradation percentage over time of the 5F-FF, 5F-FF/PEG300, 5F-FF/PEG600, 5F-FF/PEG1000, 5F-FF/PEG1500, 5F-FF/PEG2000, and 5F-FF/PEG3000 alone in the PBS according to some embodiments of the invention.

Data on five compounds can be found in US11690935B2, “Thermosensitive peptide hydrogel” (NATIONAL CHIAO TUNG UNIVERSITY, priority 2020, dated 2023).

Residues, ends and D or L forms follow the SMILES beside them. *: point of attachment. Phenylacetyl(2,3,4,5,6-F5) = O=C(Cc1c(F)c(F)c(F)c(F)c1F)*

For the compound `N=C(N)NCCCC(NC(=O)C(Cc1ccccc1)NC(=O)C(Cc1ccccc1)NC(=O)Cc1c(F)c(F)c(F)c(F)c1F)C(=O)NCC(=O)NC(CC(=O)O)C(=O)O` (stereo not drawn) [Sample 5F-FFRGD] ({Phenylacetyl(2,3,4,5,6-F5)}-FFRGD-OH; configuration not given here), the “Time at room temperature to convert again into a sol state” value in series [1] was determined as 20 min.

`O=C(Cc1c(F)c(F)c(F)c(F)c1F)N[C@@H](Cc1ccccc1)C(=O)N[C@@H](Cc1ccccc1)C(=O)O` [Sample 5F-FF, 2,3,4,5,6-fluorobenzyl-diphenylalanine]: the viability at 24 h, 0.5 wt % in series [2] (day 1, hMSC (3A6), hydrogels under neutral conditions) was 84%. For the same compound, the viability at 48 h, 0.5 wt % in series [2] (day 2, hMSC (3A6)) turned out to be 88.6%. Moreover, the viability at 72 h, 0.5 wt % in series [2] (day 3, hMSC (3A6)) is 68.2%. Besides, the viability at 120 h, 0.5 wt % in series [2] (day 5, hMSC (3A6)) amounted to 73.3%. Besides, the viability at 168 h, 0.5 wt % in series [2] (day 7, hMSC (3A6)) worked out at 84%. The “Time Tsol-gel” value in series [1] (5F-FF with PEG of different molecular weights, thermosensitive gelation at 37° C., pH 7.0) is on record as “Gel”. Also, the “CGC (critical gelation concentration)” value in series [1] (5F-FF, Table 2) is on record as 0.5 wt %. The compound also had a Degradation percentage in series [3] of 35.75%.

In turn, `O=C(Cc1c(F)cc(F)cc1F)N[C@@H](Cc1ccccc1)C(=O)N[C@@H](Cc1ccccc1)C(=O)O` [Sample 3F-FF] showed a CGC in series [1] (pH 7.0) of 0.5 wt %.

As for `O=C(Cc1ccc(F)cc1)N[C@@H](Cc1ccccc1)C(=O)N[C@@H](Cc1ccccc1)C(=O)O` [Sample 1F-FF], in series [1] (pH 7.0), the CGC was 1 wt %. Besides, the “State at 37° C.” value in series [1] (Table 6, 1F-FF with PEG of different molecular weights, pH 7.0) is given as “Gel”. Moreover, in series [1] (Table 6, after cooling at 0° C.), the “Detailed description of the sample” value is listed as “Still hydrosol”. In series [1] (Table 6, gel-sol behavior, pH 7.0), the “State at 0° C. (Surrounded by ice cubes)” value is recorded as “Gel”.

For `CC(NC(=O)C(Cc1cnc[nH]1)NC(=O)CNC(=O)C(Cc1ccccc1)NC(=O)C(Cc1ccccc1)NC(=O)Cc1c(F)c(F)c(F)c(F)c1F)C(=O)NC(C(=O)NC(CC(=O)O)C(=O)O)C(C)C` (stereo not drawn) [Sample 5F-FFGHAVD] ({Phenylacetyl(2,3,4,5,6-F5)}-FFGHAVD-OH; configuration not given here), the “Time at room temperature to convert again into a sol state” value in series [1] stood at 20 min.
